pKd: −log10 of the molar value.
How the values were obtained:
JAK2 = target: T1, JAK2 (Homo sapiens, UniProt O60674); assay: Kinase competition binding assay (Kd, qPCR readout), JAK2; settings: for pKd: Kd class, JAK2, read-out: JAK2 Activity Level; for RCK:JAK2 selectivity ratio: ratio Kd (JAK2): Kd(RCK)
T1 construct: made in house; host or cells: E. coli BL21-derived host (T7 phage) or HEK-293
Summary of the method: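 Competition binding: DNA-tagged kinase (T7 phage or HEK-293-expressed), immobilized biotinylated ligand beads and compound in SeaBlock/PBS/Tween/DTT buffer, 1 hour at room temperature; bound kinase eluted and quantified by qPCR. Kd from 11-point 3-fold dilution, top 30,000 nM typically, final DMSO 1%.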

[1] = target: T2, kinase domain protein of RC kinase (RCK) (Homo sapiens, UniProt Q56UN5); assay: Kinase competition binding assay (Kd, qPCR readout), RC kinase; settings: Kd class, read-out: RCK Activity Level
T2 construct: made in house; host or cells: E. coli BL21-derived host (T7 phage) or HEK-293
T2 sequence (Q56UN5 1061-1324 limits assumed): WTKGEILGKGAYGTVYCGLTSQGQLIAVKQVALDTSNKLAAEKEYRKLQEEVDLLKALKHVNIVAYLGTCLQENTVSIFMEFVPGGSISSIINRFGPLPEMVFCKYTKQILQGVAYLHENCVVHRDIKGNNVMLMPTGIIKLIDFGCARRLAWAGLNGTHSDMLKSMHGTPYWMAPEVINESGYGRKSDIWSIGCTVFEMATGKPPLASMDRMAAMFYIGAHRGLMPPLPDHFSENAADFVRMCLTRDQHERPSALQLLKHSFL
Summary of the method: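 Competition binding: DNA-tagged kinase (T7 phage or HEK-293-expressed) plus immobilized biotinylated ligand beads and compound, 1 h at room temperature, 1% DMSO. Bead-bound kinase eluted and quantified by qPCR. Kd from 11-point 3-fold dilution, top 30,000 nM, retested lower if below 0.5 nM.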

JAK3 = target: T3, JAK3 (Homo sapiens, UniProt P52333); assay: Kinase competition binding assay (Kd, qPCR readout), JAK3; settings: for pKd: Kd class, JAK3, read-out: JAK3 Activity Level; for RCK:JAK3 selectivity ratio: ratio Kd (JAK3): Kd (RCK)
T3 construct: made in house; host or cells: E. coli BL21-derived host (T7 phage) or HEK-293
Summary of the method: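 Competition binding in which kinase, either T7 phage-tagged or HEK-293-expressed and DNA-tagged, was exposed to immobilized biotinylated ligand and test compound for 1 h at room temperature. Bead-bound kinase was eluted and quantified by qPCR. Kd came from 11-point 3-fold dilutions, top concentration 30,000 nM and 1% DMSO, repeated lower if below 0.5 nM.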

T1 sequence (O60674 840-1132 limits assumed): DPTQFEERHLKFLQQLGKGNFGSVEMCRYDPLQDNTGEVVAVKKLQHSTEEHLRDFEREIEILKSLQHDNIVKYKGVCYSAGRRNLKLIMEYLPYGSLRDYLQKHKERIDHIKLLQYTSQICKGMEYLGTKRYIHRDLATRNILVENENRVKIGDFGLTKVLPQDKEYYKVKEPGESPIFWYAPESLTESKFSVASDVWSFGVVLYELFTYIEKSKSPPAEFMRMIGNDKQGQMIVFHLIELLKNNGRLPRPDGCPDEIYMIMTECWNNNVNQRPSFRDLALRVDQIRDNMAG
T3 sequence (P52333 811-1124 limits assumed): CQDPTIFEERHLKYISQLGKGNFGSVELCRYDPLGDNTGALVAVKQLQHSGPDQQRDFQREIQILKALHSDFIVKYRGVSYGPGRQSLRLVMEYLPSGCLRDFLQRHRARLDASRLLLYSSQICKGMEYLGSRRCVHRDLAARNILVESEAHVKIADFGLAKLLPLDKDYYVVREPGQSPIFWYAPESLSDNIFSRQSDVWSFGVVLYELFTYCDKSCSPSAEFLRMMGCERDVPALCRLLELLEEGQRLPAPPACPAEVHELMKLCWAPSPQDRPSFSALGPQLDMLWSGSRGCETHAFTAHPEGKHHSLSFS

| SMILES | pKd (JAK2) | RCK:JAK2 selectivity ratio (JAK2) | pKd [1] | pKd (JAK3) | RCK:JAK3 selectivity ratio (JAK3) |
| --- | --- | --- | --- | --- | --- |
| CC(C)N1CCN(c2ccc(Nc3n[nH]c(NCc4ccc(O)cc4)c3C(N)=O)cc2)CC1 [reference compound] | > 7.30 | C (C represents 1<Kd (JAK2): Kd (RCK)<10) | > 7.30 | 7.00 to 7.30 | B (B represents 10<Kd (JAK3): Kd (RCK)<100) |
| CC(C)N1CCN(c2ccc(Nc3n[nH]c(NCc4ccc(O)cc4)c3C(N)=O)cc2Cl)CC1 [reference compound] | > 7.30 | C (C represents 1<Kd (JAK2): Kd (RCK)<10) | > 7.30 | > 7.30 | C (C represents 1<Kd (JAK3): Kd (RCK)<10) |
| NC(=O)c1c(Nc2ccc(-c3ccccc3)cc2)n[nH]c1NCc1ccc(O)cc1 [reference compound] | > 7.30 | D (D represents Kd(JAK2): Kd (RCK)<1) | 7.00 to 7.30 | 7.00 to 7.30 | C (C represents 1<Kd (JAK3): Kd (RCK)<10) |
| CC1CCN(C2CCN(c3ccc(Nc4n[nH]c(NCc5ccc(O)cc5)c4C(N)=O)cc3)CC2)CC1 [reference compound] | > 7.30 | C (C represents 1<Kd (JAK2): Kd (RCK)<10) | > 7.30 | > 7.30 | D (D represents Kd (JAK3): Kd(RCK)<1) |
| NC(=O)c1c(Nc2ccc(N3CCN(C(=O)N4CCCC4)CC3)cc2)n[nH]c1NCc1ccc(O)cc1 [reference compound] | > 7.30 | D (D represents Kd(JAK2): Kd (RCK)<1) | > 7.30 | > 7.30 | C (C represents 1<Kd (JAK3): Kd (RCK)<10) |
| NC(=O)c1c(Nc2ccc(N3CCC(F)CC3)cc2)n[nH]c1NCc1ccc(O)cc1 [reference compound] | > 7.30 | D (D represents Kd(JAK2): Kd (RCK)<1) | > 7.30 | > 7.30 | D (D represents Kd (JAK3): Kd(RCK)<1) |
| C[C@@H]1CC(c2ccc(Nc3n[nH]c(NCc4ccc(O)cc4)c3C(N)=O)cn2)C[C@H](C)O1 (stereo partly drawn) [reference compound] | > 7.30 | C (C represents 1<Kd (JAK2): Kd (RCK)<10) | > 7.30 | > 7.30 | C (C represents 1<Kd (JAK3): Kd (RCK)<10) |
| NC(=O)c1c(Nc2ccc(N3CCCCC3)cc2)n[nH]c1NCc1ccc(O)cc1 [reference compound] | > 7.30 | C (C represents 1<Kd (JAK2): Kd (RCK)<10) | > 7.30 | > 7.30 | C (C represents 1<Kd (JAK3): Kd (RCK)<10) |
| Cc1cc(Nc2n[nH]c(NCc3ccc(O)cc3)c2C(N)=O)ccc1N1CCN(C)CC1 [reference compound] | > 7.30 | C (C represents 1<Kd (JAK2): Kd (RCK)<10) | > 7.30 | > 7.30 | C (C represents 1<Kd (JAK3): Kd (RCK)<10) |
| Cc1cc(Nc2n[nH]c(NCc3ccc(O)cc3)c2C(N)=O)ccc1N1CCCCC1 [reference compound] | > 7.30 | C (C represents 1<Kd (JAK2): Kd (RCK)<10) | > 7.30 | 7.00 to 7.30 | C (C represents 1<Kd (JAK3): Kd (RCK)<10) |
| NC(=O)c1c(Nc2ccc(N3CCS(=O)(=O)CC3)cc2)n[nH]c1NCc1ccc(O)cc1 [reference compound] | > 7.30 | D (D represents Kd(JAK2): Kd (RCK)<1) | > 7.30 | > 7.30 | D (D represents Kd (JAK3): Kd(RCK)<1) |
| NC(=O)c1c(Nc2ccc(N3CCCCC3)cn2)n[nH]c1NCc1ccc(O)cc1 [reference compound] | > 7.30 | D (D represents Kd(JAK2): Kd (RCK)<1) | > 7.30 | > 7.30 | D (D represents Kd (JAK3): Kd(RCK)<1) |
| NC(=O)c1c(Nc2ccc(N3CCC(Cl)CC3)cc2)n[nH]c1NCc1ccc(O)cc1 [reference compound] | > 7.30 | D (D represents Kd(JAK2): Kd (RCK)<1) | > 7.30 | > 7.30 | C (C represents 1<Kd (JAK3): Kd (RCK)<10) |
| NC(=O)c1c(Nc2ccc(N3CCOCC3)c(F)c2)n[nH]c1NCc1ccc(O)cc1 [reference compound] | > 7.30 |  | > 7.30 | > 7.30 |  |
| NC(=O)c1c(Nc2ccc(-c3cnco3)cc2)n[nH]c1NCc1ccc(O)cc1 [reference compound] | > 7.30 | C (C represents 1<Kd (JAK2): Kd (RCK)<10) | > 7.30 | > 7.30 | C (C represents 1<Kd (JAK3): Kd (RCK)<10) |
| NC(=O)c1c(Nc2ccc(N3CCN(C(=O)N4CCOCC4)CC3)cc2)n[nH]c1NCc1ccc(O)cc1 [reference compound] | > 7.30 | D (D represents Kd(JAK2): Kd (RCK)<1) | > 7.30 | > 7.30 | C (C represents 1<Kd (JAK3): Kd (RCK)<10) |
| CN1CCN(c2ccc(Nc3n[nH]c(NCc4ccc(O)cc4)c3C(N)=O)cc2Cl)CC1 [reference compound] | > 7.30 | D (D represents Kd(JAK2): Kd (RCK)<1) | > 7.30 | > 7.30 | C (C represents 1<Kd (JAK3): Kd (RCK)<10) |
| NC(=O)c1c(Nc2ccc(N3CCN(c4ncccn4)CC3)cc2)n[nH]c1NCc1ccc(O)cc1 [reference compound] | > 7.30 | C (C represents 1<Kd (JAK2): Kd (RCK)<10) | > 7.30 | > 7.30 | C (C represents 1<Kd (JAK3): Kd (RCK)<10) |
| NC(=O)c1c(Nc2ccc(CN3CCCCC3)cc2)n[nH]c1NCc1ccc(O)cc1 [reference compound] | > 7.30 | D (D represents Kd(JAK2): Kd (RCK)<1) | > 7.30 | > 7.30 | D (D represents Kd (JAK3): Kd(RCK)<1) |

Continued, in another order:

| pKd (JAK2) | RCK:JAK2 selectivity ratio (JAK2) | pKd [1] | pKd (JAK3) | SMILES | RCK:JAK3 selectivity ratio (JAK3) |
| --- | --- | --- | --- | --- | --- |
| > 7.30 | D (D represents Kd(JAK2): Kd (RCK)<1) | > 7.30 | 7.00 to 7.30 | CC(C)(C)c1ccc(Nc2n[nH]c(NCc3ccc(O)cc3)c2C(N)=O)cc1 [reference compound] | C (C represents 1<Kd (JAK3): Kd (RCK)<10) |
| > 7.30 | D (D represents Kd(JAK2): Kd (RCK)<1) | 7.00 to 7.30 | > 7.30 | NC(=O)c1c(Nc2ccc3[nH]ncc3c2)n[nH]c1NCc1ccc(O)cc1 [reference compound] | D (D represents Kd (JAK3): Kd(RCK)<1) |
| > 7.30 | D (D represents Kd(JAK2): Kd (RCK)<1) | > 7.30 | > 7.30 | NC(=O)c1c(Nc2ccc(N3CCN(Cc4ccccc4)CC3)cc2)n[nH]c1NCc1ccc(O)cc1 [reference compound] | C (C represents 1<Kd (JAK3): Kd (RCK)<10) |
| > 7.30 | D (D represents Kd(JAK2): Kd (RCK)<1) | > 7.30 | > 7.30 | NC(=O)c1c(Nc2ccc(CN3CCCC3)cc2)n[nH]c1NCc1ccc(O)cc1 [reference compound] | D (D represents Kd (JAK3): Kd(RCK)<1) |
| > 7.30 | D (D represents Kd(JAK2): Kd (RCK)<1) | > 7.30 | > 7.30 | CN(C)C1CCN(c2ccc(Nc3n[nH]c(NCc4ccc(O)cc4)c3C(N)=O)cc2)CC1 [reference compound] | D (D represents Kd (JAK3): Kd(RCK)<1) |
| > 7.30 | D (D represents Kd(JAK2): Kd (RCK)<1) | > 7.30 | > 7.30 | CC(=O)Nc1cccc(Nc2n[nH]c(NCc3ccc(O)cc3)c2C(N)=O)c1 [reference compound] | D (D represents Kd (JAK3): Kd(RCK)<1) |
| > 7.30 | D (D represents Kd(JAK2): Kd (RCK)<1) | > 7.30 | > 7.30 | NC(=O)c1c(Nc2ccc(F)cc2)n[nH]c1NCc1ccc(O)cc1 [reference compound] | D (D represents Kd (JAK3): Kd(RCK)<1) |
| > 7.30 | D (D represents Kd(JAK2): Kd (RCK)<1) | 7.00 to 7.30 | > 7.30 | N#Cc1cccc(Nc2n[nH]c(NCc3ccc(O)cc3)c2C(N)=O)c1 [reference compound] | D (D represents Kd (JAK3): Kd(RCK)<1) |
| > 7.30 | D (D represents Kd(JAK2): Kd (RCK)<1) | > 7.30 | > 7.30 | NC(=O)c1c(Nc2ccc(N3CCSCC3)cc2)n[nH]c1NCc1ccc(O)cc1 [reference compound] | C (C represents 1<Kd (JAK3): Kd (RCK)<10) |

Reference: patent publication US9730914B2, “3,5-diaminopyrazole kinase inhibitors” (Axikin Pharmaceuticals, Inc., priority 2014, dated 2017)
